Converted amounts (≈) assume the structure as drawn.

T1 sequence (O00329 whole entry): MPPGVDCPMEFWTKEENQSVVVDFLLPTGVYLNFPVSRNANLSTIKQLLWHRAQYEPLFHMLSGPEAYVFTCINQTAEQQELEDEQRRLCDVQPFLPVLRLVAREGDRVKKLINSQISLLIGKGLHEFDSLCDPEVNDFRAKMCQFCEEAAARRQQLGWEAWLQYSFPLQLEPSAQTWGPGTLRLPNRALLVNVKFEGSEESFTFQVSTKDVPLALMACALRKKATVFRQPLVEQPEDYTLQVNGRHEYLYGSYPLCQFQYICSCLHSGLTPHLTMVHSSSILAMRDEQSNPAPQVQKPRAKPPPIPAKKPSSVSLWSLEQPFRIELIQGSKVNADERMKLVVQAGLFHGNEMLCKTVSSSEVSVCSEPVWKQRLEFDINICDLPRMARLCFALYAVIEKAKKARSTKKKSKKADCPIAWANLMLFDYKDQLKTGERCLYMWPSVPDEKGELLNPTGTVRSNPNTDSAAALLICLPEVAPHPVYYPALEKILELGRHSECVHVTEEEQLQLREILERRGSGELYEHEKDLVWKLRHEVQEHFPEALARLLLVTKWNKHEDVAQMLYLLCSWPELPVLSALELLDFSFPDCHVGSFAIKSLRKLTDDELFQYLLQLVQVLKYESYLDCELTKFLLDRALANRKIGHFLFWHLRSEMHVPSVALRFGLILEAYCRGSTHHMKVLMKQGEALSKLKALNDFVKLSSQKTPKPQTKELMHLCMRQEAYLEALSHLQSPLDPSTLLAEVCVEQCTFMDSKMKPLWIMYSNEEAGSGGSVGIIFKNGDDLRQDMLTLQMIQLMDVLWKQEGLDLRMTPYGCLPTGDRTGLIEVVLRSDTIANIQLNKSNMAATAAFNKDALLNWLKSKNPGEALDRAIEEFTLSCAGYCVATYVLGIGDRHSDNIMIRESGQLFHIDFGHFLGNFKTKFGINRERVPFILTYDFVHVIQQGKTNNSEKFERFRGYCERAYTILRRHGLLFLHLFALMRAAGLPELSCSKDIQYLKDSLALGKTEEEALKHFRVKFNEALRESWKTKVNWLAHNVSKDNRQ
T1 sequence (P27986 whole entry partner): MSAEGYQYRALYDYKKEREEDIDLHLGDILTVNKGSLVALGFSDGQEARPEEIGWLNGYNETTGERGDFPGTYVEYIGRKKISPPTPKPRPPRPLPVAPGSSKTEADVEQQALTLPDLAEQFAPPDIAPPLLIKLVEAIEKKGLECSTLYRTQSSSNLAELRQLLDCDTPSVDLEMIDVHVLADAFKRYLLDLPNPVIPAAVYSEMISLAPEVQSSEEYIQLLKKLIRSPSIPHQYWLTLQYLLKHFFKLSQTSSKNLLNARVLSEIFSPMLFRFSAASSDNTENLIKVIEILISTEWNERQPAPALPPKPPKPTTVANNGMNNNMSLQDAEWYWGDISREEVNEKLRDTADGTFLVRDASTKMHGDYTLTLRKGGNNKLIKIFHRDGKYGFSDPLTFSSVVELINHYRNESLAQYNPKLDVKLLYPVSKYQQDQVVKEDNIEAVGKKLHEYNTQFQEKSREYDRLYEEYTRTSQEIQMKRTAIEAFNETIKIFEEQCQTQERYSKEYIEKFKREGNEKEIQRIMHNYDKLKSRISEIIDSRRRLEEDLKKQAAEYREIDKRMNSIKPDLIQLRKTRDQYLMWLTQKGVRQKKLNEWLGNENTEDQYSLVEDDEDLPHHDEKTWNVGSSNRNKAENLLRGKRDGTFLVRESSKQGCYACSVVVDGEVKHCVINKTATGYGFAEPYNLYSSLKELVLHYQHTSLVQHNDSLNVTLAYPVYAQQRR

One data set addresses T1, PI3Kδ (recombinant GST-tagged PIK3CD co-expressed with PIK3R1, p85α) (Homo sapiens, UniProt O00329).
T1 construct: The protein is full length and co-expressed with untagged PIK3R1; GST; purchased Invitrogen PV5274
Description: modified PIK3CD Adapta TR-FRET kinase assay (PI3Kδ inhibition). The following applies: 2 μM ATP, 50 μM PIP2, room temperature, 1 hour. It is filed as biochemical. On the procedure:
The activity of compounds as PI3Kδ inhibitors may be determined by a variety of methods, including in vitro and in vivo methods. The following in vitro assay measures a test compound's ability to inhibit PI3Kδ-mediated phosphorylation of PIP2 and ATP.
Recombinant GST-tagged PIK3CD is purchased from Invitrogen (Part Number: PV5274). The protein is full length and co-expressed with untagged PIK3R1, phosphoinositide-3-kinase regulatory subunit 1 (p85α). The protein is stored at −20° C. in 50 mM TRIS (pH 7.5), 150 mM NaCl, 0.5 mM EDTA, 0.02% Triton® X-100, 2 mM DTT, and 50% glycerol.
A modified PIK3CD Adapta® assay (Invitrogen, Carlsbad, Calif.) is used to measure PI3Kδ inhibition of the example compounds. The assay has two phases. In the first phase, kinase reaction components, which include the enzyme (PIK3CD), substrates (PIP2, ATP), test compound (inhibitor), and assay buffer are added to each well, and the reaction is allowed to incubate for a pre-determined period of time. After reaction, a detection solution composed of a Eu (europium)-labeled anti-ADP antibody, Alexa Fluor® 647-labeled ADP tracer, and EDTA (to stop the kinase reaction) is added to each assay well. In this second phase, ADP formed by the kinase reaction displaces the Alexa Fluor® 647-labeled ADP tracer from the antibody, resulting in a decrease in time-resolved fluorescence resonance energy transfer (TR-FRET) signal. In the presence of the inhibitor, the amount of ADP formed by the kinase reaction is reduced, and the resulting intact antibody-tracer interaction maintains a high TR-FRET signal.
The assay uses black Greiner® 384-well plates (784076). The reaction buffer contains 50 mM Hepes (pH 7.5), 3 mM MgCl2, 1 mM EGTA, 100 mM NaCl, 0.03% CHAPS; 2 mM DTT is added fresh prior to each experiment. Enzyme (4 μL, estimated 1.5 nM in buffer) is first added to the wells of the plate. Next, test compounds (2 μL) from a source plate (5% dilution plate) are introduced into the wells. The final DMSO concentration in each assay well is 1%. […] Other wells contain test compounds serially diluted across the plate 11 times for a total of 12 data points. The kinase reactions are carried out at room temperature and are initiated by the addition of 4 μL of solution containing 2 μM ATP and 50 μM PIP2. Each reaction is stopped after 1 hour±10 minutes via addition of […], which contains a final assay concentration of 3 nM Alexa Fluor® 647-labeled ADP tracer, 2 nM Eu-anti-ADP Antibody, and 10 mM EDTA. After allowing the solutions to equilibrate for 30±10 minutes, a PHERAstar plate reader is used to excite the Eu donor (at 337 nm) and to detect emission from the Alexa Fluor® 647 at 665 nm. This emission signal is referenced or “ratioed” to the emission from Eu at 620 nm. The emission ratio (665 nm/620 nm) from each well is collected and converted to percent conversion using a standard curve for the assay conditions: % conversion=B*(C+A−emission ratio)/(emission ratio−C), where “A” and “C” are the maximum and minimum values of the emission ratio obtained from the standard curve of emission ratio vs. % conversion (ATP-ADP); “B” is the emission ratio corresponding to the % conversion at the EC50 value for the ADP Tracer-Eu anti-ADP antibody complex. The percent inhibition for a given inhibitor concentration is computed from % conversion for the reaction and for the positive and negative controls. Corresponding IC50 values (molar concentration at 50% inhibition) are calculated by non-linear curve fitting of the compound concentrations and values of percent inhibition to the standard IC50 equation.
The IC50 is the concentration at which inhibition is half-maximal. `Cc1nc(N)nc(N[C@@H](C)c2nc3ccn(C)c3cc2C2CCNCC2)c1C#N` [Example 12, (S)-2-Amino-4-methyl-6-(1-(1-methyl-6-(piperidin-4-yl)-1H-pyrrolo[3,2-b]pyridin-5-yl)ethylamino)pyrimidine-5-carbonitrile]: the IC50 was determined as 1.4 nM.
Consider “(S)-2-Amino-4-methyl-6-(1-(1-methyl-6-(piperazin-1-yl)-1H-pyrrolo[3,2-b]pyridin-5-yl)ethylamino)pyrimidine-5-carbonitrile [Example 1]”, for which the concentration for half-maximal inhibition (IC50) turned out to be 0.7 nM.
As to `Cc1nc(N)nc(N[C@@H](C)c2nc3ccn(C)c3cc2N2CC[C@@H](N)C2)c1C#N` (single isomer, unassigned) [Example 7], the IC50 was found to be 4.2 nM.
For `Cc1nc(N)nc(N[C@@H](C)c2nc3ccn(C)c3cc2NC2CCNCC2)c1C#N` [Example 15, (S)-2-Amino-4-methyl-6-((1-(1-methyl-6-(piperidin-4-ylamino)-1H-pyrrolo[3,2-b]pyridin-5-yl)ethyl)amino)pyrimidine-5-carbonitrile], the IC50 came to 5.5 nM.
As for `Cc1nc(N)nc(N[C@@H](C)c2nc3ccn(C)c3cc2N2CCCNCC2)c1C#N` [Example 2, (S)-4-(1-(6-(1,4-Diazepan-1-yl)-1-methyl-1H-pyrrolo[3,2-b]pyridin-5-yl)ethylamino)-2-amino-6-methylpyrimidine-5-carbonitrile], the half-maximal inhibitory concentration (IC50) was found to be 5 nM.
As for “4-((S)-1-(6-((1S,4S)-2,5-Diazabicyclo[2.2.1]heptan-2-yl)-1-methyl-1H-pyrrolo[3,2-b]pyridin-5-yl)ethylamino)-2-amino-6-methylpyrimidine-5-carbonitrile [Example 14]”, the IC50 came to 0.6 nM.
Still for that read-out and setting: next, `Cc1nc(N)nc(N[C@@H](C)c2nc3ccn(C)c3cc2N2CCN[C@H](C)C2)c1C#N` [Example 9, 2-Amino-4-methyl-6-((S)-1-(1-methyl-6-((R)-3-methylpiperazin-1-yl)-1H-pyrrolo[3,2-b]pyridin-5-yl)ethylamino)pyrimidine-5-carbonitrile]: 2.2 nM; `CN[C@H]1CCN(c2cc3c(ccn3C)nc2[C@H](C)Nc2nc(N)nc(C)c2C#N)C1` [Example 3, 2-Amino-4-methyl-6-((S)-1-(1-methyl-6-((S)-3-(methylamino)pyrrolidin-1-yl)-1H-pyrrolo[3,2-b]pyridin-5-yl)ethylamino)pyrimidine-5-carbonitrile]: 5.6 nM; `Cc1nc(N)nc(N[C@@H](C)c2nc3ccn(C)c3cc2[C@@H]2CCNC2)c1C#N` (single isomer, unassigned) [Example 10]: 3.5 nM.
On to `Cc1nc(N)nc(N[C@@H](C)c2nc3ccn(C)c3cc2[C@H]2CCNC2)c1C#N` (single isomer, unassigned) [Example 11], for which the IC50 turned out to be 1.3 nM.
On to `Cc1nc(N)nc(N[C@@H](C)c2nc3ccn(C)c3cc2C2=CCC(N)CC2)c1C#N` (stereo partly drawn) [Example 17, 2-Amino-4-(((1S)-1-(6-(4-aminocyclohex-1-en-1-yl)-1-methyl-1H-pyrrolo[3,2-b]pyridin-5-yl)ethyl)amino)-6-methylpyrimidine-5-carbonitrile], for which the IC50 was determined as 8.5 nM.
On the same count and under the same terms, next, `Cc1nc(N)nc(N[C@@H](C)c2nc3ccn(C)c3cc2N2CC[C@H](N)C2)c1C#N` (single isomer, unassigned) [Example 8]: 2.6 nM; `Cc1nc(N)nc(N[C@@H](C)c2nc3ccn(C)c3cc2N2CCC[C@@H](N)C2)c1C#N` (single isomer, unassigned) [Example 4]: 2.9 nM; `Cc1nc(N)nc(N[C@@H](C)c2nc3ccn(C)c3cc2N(C)C2CNC2)c1C#N` [Example 16, (S)-2-Amino-4-((1-(6-(azetidin-3-yl(methyl)amino)-1-methyl-1H-pyrrolo[3,2-b]pyridin-5-yl)ethyl)amino)-6-methylpyrimidine-5-carbonitrile]: 2.4 nM.
Turning to `CC[C@H](Nc1nc(N)nc(C)c1C#N)c1nc2ccn(C)c2cc1N1CCNCC1` [Example 19, (S)-2-Amino-4-methyl-6-((1-(1-methyl-6-(piperazin-1-yl)-1H-pyrrolo[3,2-b]pyridin-5-yl)propyl)amino)pyrimidine-5-carbonitrile], the IC50 was found to be 0.8 nM.
As to `Cc1nc(N)nc(N[C@@H](C)c2nc3ccn(C)c3cc2N2CCN[C@@H](C)C2)c1C#N` [Example 6, 2-Amino-4-methyl-6-((S)-1-(1-methyl-6-((S)-3-methylpiperazin-1-yl)-1H-pyrrolo[3,2-b]pyridin-5-yl)ethylamino)pyrimidine-5-carbonitrile], the half-inhibitory concentration (IC50) amounted to 5 nM.
In the case of `C[C@H](Nc1nc(N)nc(N)c1C#N)c1nc2ccn(C)c2cc1N1CCNCC1` [Example 13, (S)-2,4-Diamino-6-(1-(1-methyl-6-(piperazin-1-yl)-1H-pyrrolo[3,2-b]pyridin-5-yl)ethylamino)pyrimidine-5-carbonitrile], the IC50 was determined as 1 nM.
With `Cc1nc(N)nc(N[C@@H](C)c2nc3ccn(C)c3cc2C2CCC(N)CC2)c1C#N` (mixture of isomers) [Example 18, (S)-2-Amino-4-((1-(6-(4-aminocyclohexyl)-1-methyl-1H-pyrrolo[3,2-b]pyridin-5-yl)ethyl)amino)-6-methylpyrimidine-5-carbonitrile], the IC50 was 1.7 nM.
For `CCc1nc(N)nc(N[C@@H](C)c2nc3ccn(C)c3cc2N2CCNCC2)c1C#N` [Example 20, (S)-2-Amino-4-ethyl-6-((1-(1-methyl-6-(piperazin-1-yl)-1H-pyrrolo[3,2-b]pyridin-5-yl)ethyl)amino)pyrimidine-5-carbonitrile], the 50% inhibitory concentration (IC50) is 220 nM.
On to `Cc1nc(N)nc(N[C@@H](C)c2nc3ccn(C)c3cc2N2CCC[C@H](N)C2)c1C#N` (single isomer, unassigned) [Example 5], for which the half-inhibitory concentration (IC50) is 5.4 nM.

System in a further data set: not listed separately
Description: Thermodynamic solubility assay in JP2. The note with it: JP2 (Japan Pharmacopoeia 2nd fluid for dissolution), 37 °C, pH 6.8, aqueous buffer, thermodynamic from solid.
Description: Testing media for both assays are prepared as follows: • JP1 (Japan Pharmacopoeia 1st fluid for dissolution): In a 1 L volumetric flask, dissolve 2.0 g sodium chloride in about 500 mL deionized water. Add 84 mL of 1M hydrochloric acid and dilute to volume with deionized water. Mix thoroughly. • JP2 (Japan Pharmacopoeia 2nd fluid for dissolution): In a 1 L volumetric flask dissolve 6.806 g of anhydrous potassium phosphate monobasic in about 500 mL of deionized water. Add 23.6 mL of 1M sodium hydroxide and dilute to volume with deionized water. Mix thoroughly. • GCDC (20-mM sodium glycochenodeoxycholate in JP2): In a 50 mL volumetric flask, dissolve 0.475 g of sodium glycochenodeoxycholate with ˜30 mL JP2. Dilute to volume with additional JP2. Mix thoroughly. • Other pH buffers between pH 2-6 can also be prepared as additional testing media.
About 3 mg of compound is weighed into an HPLC vial. Testing medium (0.5 mL) is then added to the compound vial. The vial is sealed with a screw-on cap and placed in an incubator set at 37° C. with orbital shaking at 150 RPM for overnight equilibration. At the end of equilibration, the final pH is measured, and whether the compound is totally dissolved (clear solution) or not (solid in vial) is recorded. Then the sample mixture is transferred to a centrifuge tube with filter insert (0.45 μm nylon filter) and centrifuge filtered. The filtrate is diluted appropriately (2 to 50× dilution) before HPLC analysis. A calibration standard is prepared by dissolving ˜5 mg of compound in diluent and q.s. to volume in a 20 mL volumetric flask. A separate QC standard is prepared at about the same concentration. The default diluent is 1:1 acetonitrile/water. Alternative diluents such as 1:1 DMA/water and other mixtures may also be used depending on the solubility behavior of the compound. The calibration response factor is calculated by dividing the standard peak area with standard concentration. The sample solubility in a test medium is calculated by dividing the sample peak area with the corresponding standard response factor and multiplied by sample dilution factor. The response factor from QC standard is also calculated and compared with calibration standard. If the response factors of the calibration and QC standard differ by more than 5%, new calibration and QC standards should be prepared and samples are reanalyzed with new standards.
Broadly, the thermodynamic solubility is the concentration in solution at equilibrium with solid. Compound `Cc1nc(N)nc(N[C@@H](C)c2nc3ccn(C)c3cc2C2CCNCC2)c1C#N` [Example 12, (S)-2-Amino-4-methyl-6-(1-(1-methyl-6-(piperidin-4-yl)-1H-pyrrolo[3,2-b]pyridin-5-yl)ethylamino)pyrimidine-5-carbonitrile] had a solubility (thermodynamic) of 0.15 mg/mL (≈ 384 µM).
On the same count and under the same terms, next, `C[C@H](Nc1nc(N)nc(N)c1C#N)c1nc2ccn(C)c2cc1N1CCOCC1` [B, reference compound]: 0.026 mg/mL (≈ 66.1 µM); `C[C@H](Nc1nc(N)nc(N)c1C#N)c1nc2ccn(C)c2cc1C1CCOCC1` [A, reference compound]: 0.02 mg/mL (≈ 51 µM); `Cc1nc(N)nc(N[C@@H](C)c2nc3ccn(C)c3cc2N2CCN[C@@H](C)C2)c1C#N` [Example 6, 2-Amino-4-methyl-6-((S)-1-(1-methyl-6-((S)-3-methylpiperazin-1-yl)-1H-pyrrolo[3,2-b]pyridin-5-yl)ethylamino)pyrimidine-5-carbonitrile]: 1.73 mg/mL (≈ 4270 µM).

Staying with this data set, now noted: solid free base, JP2 (Japan Pharmacopoeia 2nd fluid), 37° C., overnight equilibration.
On to “(S)-2-Amino-4-methyl-6-(1-(1-methyl-6-(piperazin-1-yl)-1H-pyrrolo[3,2-b]pyridin-5-yl)ethylamino)pyrimidine-5-carbonitrile [Example 1]”, for which the “Thermodynamic Solubility in JP2” value is 2.195 mg/mL.

System in a further data set: not given
Test: not given
The following applies: pH 6.8.
Consider “4-((S)-1-(6-((1S,4S)-2,5-Diazabicyclo[2.2.1]heptan-2-yl)-1-methyl-1H-pyrrolo[3,2-b]pyridin-5-yl)ethylamino)-2-amino-6-methylpyrimidine-5-carbonitrile [Example 14]”, for which the “Thermodynamic Solubility in JP2” value was more than 1.83 mg/mL.

These data come from patent US9371321B2, “Azaindole derivatives” (Takeda Pharmaceutical Company Limited, priority 2014, dated 2016).
